# Laboratory results as given in BindingDB's records for doi:10.1021/jm800936s (University of Oxford, 2008).
# Biological target: T1, Lysine-specific demethylase 4E (Homo sapiens, UniProt B2RXH2)
# T1 sequence (B2RXH2 whole entry): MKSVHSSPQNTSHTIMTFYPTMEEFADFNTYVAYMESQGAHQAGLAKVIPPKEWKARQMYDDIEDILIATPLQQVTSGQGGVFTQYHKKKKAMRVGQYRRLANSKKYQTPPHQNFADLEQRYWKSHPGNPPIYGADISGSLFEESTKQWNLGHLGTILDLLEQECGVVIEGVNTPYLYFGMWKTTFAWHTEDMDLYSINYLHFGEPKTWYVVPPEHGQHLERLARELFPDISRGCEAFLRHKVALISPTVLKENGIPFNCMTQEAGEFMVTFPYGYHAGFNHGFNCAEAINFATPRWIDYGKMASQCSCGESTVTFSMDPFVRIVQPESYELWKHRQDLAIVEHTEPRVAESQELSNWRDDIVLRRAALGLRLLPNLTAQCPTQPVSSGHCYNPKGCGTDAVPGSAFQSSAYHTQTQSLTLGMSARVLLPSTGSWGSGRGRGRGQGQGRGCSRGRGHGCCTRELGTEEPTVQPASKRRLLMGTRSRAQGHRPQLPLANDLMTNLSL
# Test: FDH Coupled Inhibition Assay
# Settings: pH 7.5; 37 °C
# Protocol: A coupled-assay for JMJD2E activity employing formaldehyde dehydrogenase (FDH) from Pseudomonas putida was developed. Formaldehyde release by demethylation of the histone peptide substrate was monitored by its oxidation to give formate as catalyzed by FDH, which is carried out concomitantly with the reduction of NAD+. The production of NADH was monitored by fluorescence spectroscopy.
row,SMILES,IC50
1,COC(=O)c1ccnc(-c2cc(C(=O)O)ccn2)c1 [2-[4-(methoxycarbonyl)pyridin-2-yl]pyridine-4-carboxylic acid],0.0066 mM
2,CCCC(=O)O [butanoic acid],> 10 mM

# Continued, values first:
row,IC50,SMILES
1,> 5 mM,"O=C(O)c1cccnc1C(=O)O [pyridine-2,3-dicarboxylic acid]"
2,> 10 mM,"O=C(O)c1ccncc1C(=O)O [pyridine-3,4-dicarboxylic acid]"
3,> 10 mM,"O=C(O)c1cncc(C(=O)O)c1 [pyridine-3,5-dicarboxylic acid]"
